# Where two headings read alike, the source gives them in different places.
# Columns and labels:
# M. tuberculosis H37Rv [1] = experiment: M. tuberculosis growth inhibition dose-response (MIC50), turbidity readout; format: cell-based, Mycobacterium tuberculosis; details: Mycobacterium tuberculosis, 240 h, read-out: Antibacterial activity (MIC50) M. tuberculosis
# M. tuberculosis H37Rv [2] = experiment: Bactericidal activity, CFU enumeration on agar after treatment; format: cell-based, Mycobacterium tuberculosis; details: Mycobacterium tuberculosis, H37RV, read-out: Bactericidal activity (log reduction) at 1 mM
# M. tuberculosis = experiment: Growth inhibition in acidic medium (pH 6.2); format: cell-based, Mycobacterium tuberculosis
# M. bovis BCG Pasteur = experiment: microbe, parasite or virus in culture; format: cell-based; details: Mycobacterium tuberculosis variant bovis BCG, BCG, read-out: Antibacterial activity (MIC50) M. bovis BCG
# M. smegmatis = experiment: Spectrum of activity: M. smegmatis growth inhibition; format: cell-based; details: Mycolicibacterium smegmatis, 24 h, read-out: Antibacterial activity (MIC50) M. smegmatis
# M. avium = experiment: Spectrum of activity: M. avium growth inhibition; format: cell-based; details: Mycobacterium avium, 96 h, read-out: Antibacterial activity (MIC50) M. avium
# M. abscessus = experiment: Spectrum of activity: M. abscessus growth inhibition; format: cell-based; details: Mycobacteroides abscessus, 72 h, read-out: Antibacterial activity (MIC50) M. abscessus
# Staphylococcus aureus = experiment: Spectrum of activity: S. aureus growth inhibition; format: cell-based; details: Staphylococcus aureus, read-out: Antibacterial activity (MIC50) S. aureus
# Escherichia coli = experiment: Spectrum of activity: E. coli growth inhibition; format: cell-based; details: Escherichia coli, read-out: Antibacterial activity (MIC50) E. coli
# [3] = system: human red blood cells (RBCs); experiment: Red blood cell lysis assay; details: hemolysis
# [4] = Cytotoxicity assay, THP-1 cells (CellTiter 96 AQueous One); details: human
# [5] = Cytotoxicity assay, HepG2 cells (CellTiter 96 AQueous One); details: human, HepG2 cells
# [6] = M. tuberculosis, 1 mM, log CFU/ml reduction from initial inoculum
# [7] = Mycobacterium tuberculosis, pH 6.2; read-out: Activity (MIC50) in acidic medium (pH 6.2)
# [8] = Mycobacterium tuberculosis, pH 6.2, read-out: Activity (MIC50) in acidic medium (pH 6.2)
Compound,"MIC50 (M. tuberculosis H37Rv [1]; H37Rv, 10 days) [µM]",log reduction at 1000 µM (M. tuberculosis H37Rv [2]; [6]),MIC50 (M. tuberculosis; [7]) [µM],MIC50 (M. bovis BCG Pasteur) [µM],MIC50 (M. smegmatis; 1 day) [µM],MIC50 (M. avium; 4 days) [µM],MIC50 (M. abscessus; 3 days) [µM],"MIC50 (Staphylococcus aureus; LB medium, overnight) [µM]","MIC50 (Escherichia coli; LB medium, overnight) [µM]",RBCs HC50 [3],CC50 at 24 h [4] [µM],CC50 at 24 h [5] [µM],MIC50 (M. tuberculosis H37Rv [1]; H37RV) [µM],log reduction at 1000 µM (M. tuberculosis H37Rv [2]),MIC50 (M. tuberculosis; [8]) [µM],MIC50 (M. smegmatis) [µM],MIC50 (M. avium) [µM],MIC50 (M. abscessus) [µM],MIC50 (Staphylococcus aureus) [µM],MIC50 (Escherichia coli) [µM]
"N#Cc1ccc(O)cc1F [Fragment F22, 2-Fluoro-4-hydroxybenzonitrile]",300,1.6,140,420,487,317,401,343,202,">1,000 μM",677,879,–,–,–,–,–,–,–,–
"COC(=O)c1cc2ccccc2cn1 [Fragment F4, Methyl isoquinoline-3-carboxylate]",175,1.98,158,143,389,344,> 500,> 500,> 500,">1,000 μM",> 1000,> 1000,–,–,–,–,–,–,–,–
"O=C(O)c1ccc(-c2ccsc2)cc1 [Fragment F26, 4-(3-Thienyl)benzoic acid]",320,1.35,125,> 500,> 500,> 500,497,> 500,> 500,">1,000 μM",978,944,–,–,–,–,–,–,–,–
"Clc1ccc2nc(N3CCCNCC3)sc2c1 [Fragment F12, 6-Chloro-2-(1,4-diazepan-1-yl)-1,3-benzothiazole]",198,2.8,104,137,221,157,351,> 500,324,">1,000 μM",124,187,–,–,–,–,–,–,–,–
"CSc1cc(-c2ccc(F)cc2)n[nH]1 [Fragment F11, 3-(4-Fluorophenyl)-5-(methylsulfanyl)-1H-pyrazole]",195,3.06,140,308,398,498,271,> 500,344,">1,000 μM",765,945,–,–,–,–,–,–,–,–
"COC(=O)c1sc2ccccc2c1O [Fragment F9, Methyl 3-hydroxy-1-benzo thiophene-2-carboxylate]",142,2.09,240,> 500,> 500,> 500,> 500,217,> 500,">1,000 μM",–,–,–,–,–,–,–,–,–,–
"Cc1ccc(-c2cc(C(=O)O)c(C)o2)cc1 [Fragment F24, 2-Methyl-5-(4-methylphenyl)-3-furoic acid]",316,2.02,120,193,> 500,458,> 500,> 500,> 500,">1,000 μM",887,984,–,–,–,–,–,–,–,–
"Cc1cc(C(=O)O)c(C)n1Cc1cccs1 [Fragment F16, 2,5-Dimethyl-1-(2-thienylmethyl)-1H-pyrrole-3-carboxylic acid]",247,1.89,345,> 500,> 500,> 500,> 500,> 500,> 500,">1,000 μM",724,766,–,–,–,–,–,–,–,–
"O=C(O)c1ccc(-c2cccs2)s1 [Fragment F20, [2,2′-Bithiophene]-5-carboxylic acid]",271,1.98,170,457,289,> 500,267,> 500,> 500,">1,000 μM",974,765,–,–,–,–,–,–,–,–
"O=C(O)c1csc2ccc(Cl)cc12 [Fragment F25, 5-Chloro-1-benzothiophene-3-carboxylic acid]",319,2.1,94,367,98,489,257,> 500,> 500,945 µM,876,765,–,–,–,–,–,–,–,–
"CNCc1ccccc1Oc1ccccc1 [Fragment F23, Methyl[(2-phenoxyphenyl)methyl]amine]",305,1.22,> 500,347,> 500,> 500,> 500,> 500,> 500,">1,000 μM",976,789,–,–,–,–,–,–,–,–
"Cc1oc(-c2ccc(Cl)cc2)cc1C(=O)N(C)C [Fragment F8, 5-(4-Chlorophenyl)-N,N,2-trimethyl-3-furamide]",135,1.44,93,189,233,169,322,> 500,> 500,433 µM,234,589,–,–,–,–,–,–,–,–
"O=c1cc(C(F)(F)F)c2ccc(O)cc2o1 [Fragment F2, 7-Hydroxy-4-(trifluoromethyl)-2H-chromen-2-one]",213,1.1,179,329,476,> 500,> 500,198,432,">1,000 μM",879,987,–,–,–,–,–,–,–,–
"Cc1n[nH]c(C)c1Oc1ccc(Cl)cc1 [Fragment F15, 4-(4-Chlorophenoxy)-3,5-dimethyl-1H-pyrazole]",235,2.43,157,156,198,174,256,79,> 500,453 µM,345,676,–,–,–,–,–,–,–,–
"OCc1csc(-c2ccc(C(F)(F)F)cc2)n1 [Fragment F28, {2-[4-(Trifluoromethyl)phenyl]-1,3-thiazol-4-yl}methanol]",434,1.21,215,398,235,325,253,> 500,> 500,786 µM,940,> 1000,–,–,–,–,–,–,–,–
"O=C(O)c1cc2ccccc2cn1 [Fragment F14, Isoquinoline-3-carboxylic acid]",–,–,–,193,–,–,–,–,–,">1,000 μM",–,–,235,1.97,87,176,473,> 500,304,193
"Cc1cc2cc(N)ccc2[nH]1 [Fragment F21, 2-Methyl-1H-indol-5-amine]",281,2.5,305,398,401,> 500,> 500,487,> 500,">1,000 μM",409,387,–,–,–,–,–,–,–,–
"Cc1ccc2c(c1)N(CCO)C(C)(C)CC2C.O (stereo not shown) [Fragment F18, 2-(2,2,4,7-Tetramethyl-1,2,3,4-tetrahydroquinolin-1-yl)ethan-1-ol hydrate]",–,–,–,87,–,–,–,–,–,471 µM,–,–,268,1.67,86,205,198,247,189,> 500
"c1ccc2c(c1)[nH]c1cnccc12 [Fragment F6, 9H-Pyrido[3,4-b]indole]",–,–,–,205,–,–,–,–,–,787 µM,–,–,97,0.43,113,121,302,254,> 500,302
